Assay results taken from patent US9604987B2, “Synthesis of autophagy inducing compound and the uses thereof” (Hong Kong Baptist University, priority 2012, dated 2017).

Experiments:
[1] = system: N2a cells; assay: Western blot of autophagy marker LC3-II in N2a cells; assay type: cell-based, mouse; details: N2a, oxindole alkaloids, 12 hours
Procedure: Native and denatured PAGE and Western blotting analysis. Samples to be run under denaturing conditions were lysed with RIPA lysis buffer (150 mM NaCl, 50 mM Tris-HCl, 0.35% sodium deoxycholate, 1 mM EDTA, 1% NP40, 1 mM PMSF, 5 μg/ml aprotinin, 5 μg/ml leupeptin). Samples for native gels were lysed with detergent-free lysis buffer (50 mM Tris/HCl pH 7.4, 175 mM NaCl, 5 mM EDTA pH 8.0, 1 mM PMSF, 5 μg/ml aprotinin, 5 μg/ml leupeptin), and sheared 5 times through a 28-gauge needle followed by 2 times of sonication for 5 seconds according to previously described protocol. For denaturing, SDS-PAGE was performed using Tris-Glycine SDS running buffer and SDS sample buffer, and for native conditions, native-PAGE was run with detergent-free Tris-Glycine running buffer (BN2007, Invitrogen) and 4× native sample buffer (BN2003, Invitrogen) on a pre-casted native PAGE gel (BN1002BOX, Invitrogen). The proteins on the gels were then transferred to PVDF membrane (RPN303F, GE Healthcare) and processed for immunoblotting. Membranes were blocked with 5% non-fat milk and probed with the appropriate primary and secondary antibodies. The desired bands were visualized using the ECL kit (32106, Pierce). The band density was quantified using the ImageJ program and normalized to that of the control group.
In order to confirm the neuronal autophagy inducing activity of Cory B (its chemical structure is shown in FIG. 1A), mouse neuroblastoma N2a, rat phenochromocytoma PC12 and human neurobastoma SH-SY5Y are treated with different concentrations of Cory B for 24 hours and cell lysates are subjected to western blotting analysis of LC3-II expression which is an autophagy-specific marker.
To confirm that enhancement of autophagy markers by Cory B is due to induction of autophagy rather than blockage of autophagosome maturation, N2a cells are treated with 25 μM Cory B or 30 μM lysosome inhibitor CQ together with Cory B for 12 hours. Cell lysates are subject to western blot analysis. Data are presented as the mean±SEM from 3 independent experiments (***p<0.001, one-way ANOVA for multiple comparison and Tukey's test as post hoc test). Both LC3-II levels and the number of GFP-LC3 puncta in the Cory B and CQ co-treatment group are much higher than in the CQ-alone treatment group (FIG. 2A-D). Meanwhile, Cory B induces GFP-LC3 puncta formation is abolished by treatment of 5 mM autophagy inhibitor 3-MA for 24 hours (FIG. 2C, D). Cells were fixed in 4% paraformaldehyde and analyzed under a confocal microscope. Data are presented as the mean±SEM of one representative experiment from three independent experiments. (***p<0.001, one-way ANOVA for multiple comparison and Tukey's test as post hoc test). […] Thus, Cory B is indeed an autophagy inducer in neuronal cells.
To compare the activities of oxindole alkaloids on autophagy induction, LC3II expression levels in N2a cells after treatment with Corynoxine B (Cory B) (FIG. 8A), Corynoxine (Cory) (FIG. 8B), Rhynchophylline (Rhy) (FIG. 8C) and Isorhynchophylline (IsoRhy) for 12 hours are examined.
In order to examine the pro-autophagic activities of the synthesized Cory B analogues, neuroblastoma 2a, a neuronal cell line, are treated with various concentrations of the analogues for 12 hrs. The cells are then harvested and lysed with RIPA buffer (150 mM NaCl, 50 mM Tris-HCl pH 7.4, 0.35% sodium deoxycholate, 1 mM EDTA, 1% NP40, 1 mM PMSF, 5 μg/ml aprotinin, 5 μg/ml leupeptin). The sample are lysed on ice with occasional vortex for 30 min, and then centrifuged at 14,000 rpm for 15 min at 4° C. The supernatant are collected and denatured at 95° C. in sample buffer for 5 min. The denatured samples are then separated on 15% SDS-PAGE gels and transferred to PVDF membrane. Membranes are then blocked with 5% non-fat milk and probed with appropriate primary and secondary antibodies. The protein signals of LC3II, marker protein of autophagy, are finally visualized with ECL kit and the protein bands density are quantified by ImageJ program. […]

[2] = system: N2a Swedish APP cells; assay: APP reduction in N2a Swedish APP cells (western blot); assay type: cell-based, mouse; details: different concentrations, with or without CQ and 3MA
Procedure: N2a Swedish APP cells are incubated with different concentration of Cory and Cory B in the presence or absence of CQ and 3MA. […] Tg2567 APP mice, 3 months old JNPL P301 Tau mice and WT mice intraperitoneally are administrated with 20 mg/kg/d CoryB.

| SMILES | autophagy induction (LC3II expression level) [1] | full length and CTF APP [2] |
| --- | --- | --- |
| CC[C@H]1CN2CC[C@@]3(C(=O)Nc4ccccc43)[C@@H]2C[C@@H]1/C(=C\OC)C(=O)OC [IsoRhy, Isorhynchophylline, reference compound] | did not show any activity on autophagy induction | – |
| CC[C@H]1CN2CC[C@]3(C(=O)Nc4ccccc43)[C@@H]2C[C@@H]1/C(=C\OC)C(=O)OC [Rhy, Rhynchophylline, reference compound] | did not show any activity on autophagy induction | – |
| CC[C@@H]1CN2CC[C@@]3(C(=O)Nc4ccccc43)C2C[C@@H]1C(=COC)C(=O)OC (stereo partly shown) [Cory, corynoxine] | significantly activate autophagy | dose-dependently reduce both full length and CTF APP |
